Results from patent US6667336B2, “GlyT-1 inhibitors” (NPS Allelix Corp., priority 2002, dated 2003).
Values joined by “and” are separate entries in the source; they are usually repeats but may differ in a detail not shown here. Identical values can stand only once. Marks after values point to notes of the source that are not given here.

System: male CD-1 mice
Assay: 5 day chronic oral dosing toxicity study in mice (clinical signs)
Assay type: in vivo
Design: key to Clinical signs (observation code), Day 1, 24 hours / Clinical signs (observation code), Day 2, 24 hours / Clinical signs (observation code), Day 3, 24 hours / Clinical signs (observation code), Day 4, 24 hours / Clinical signs (observation code), Day 5, 24 hours / Clinical signs (observation code), Day 1, 4 hours / Clinical signs (observation code), Day 2, 4 hours / Clinical signs (observation code), Day 3, 4 hours / Clinical signs (observation code), Day 4, 4 hours / Clinical signs (observation code), Day 5, 4 hours: 0: Appeared Normal; 1: Activity (inc./dec.); 2: Sedation/Lethargy; 3: Piloerection; 4: Stereotypy; 5: Soft Stool; 6: Chromodacryorrhea; 7: Epistaxis; 8: Cyanosis; 9: Flaccidity; 10: Respiration; 11: Hunched Posture; 12: Enophthalmia; 13: Exophthalmia; 14: Palpabral Ptosis; 15: Loss of Righting; 16: Chromaturia; 17: Salivation; 18: Lacrimation; 19: Miosis; 20: Mydriasis; 21: Rigidity; 22: Ataxia; 23: Tremors; 24: Convulsions; 25: Catalepsy; 26: Lateral Recumbency; 27: Death
Settings: for Clinical signs (observation code), Day 1, 4 hours / Clinical signs (observation code), Day 1, 24 hours / Clinical signs (observation code), Day 2, 4 hours / Clinical signs (observation code), Day 2, 24 hours / Clinical signs (observation code), Day 3, 4 hours / Clinical signs (observation code), Day 3, 24 hours / Clinical signs (observation code), Day 4, 4 hours / Clinical signs (observation code), Day 4, 24 hours / Clinical signs (observation code), Day 5, 4 hours / Clinical signs (observation code), Day 5, 24 hours: one line per animal; for Toxicity profile in comparison (compounds of formula 1 vs other GlyT1 inhibitors of similar potency): 5 day oral dosing in mice, tables 1-18
Experimental: This example illustrated a 5 day chronic oral dosing toxicity study with GlyT1 inhibitors. […] Behavioral observations (clinical signs) and body weights were recorded daily for all compounds tested. Male CD-1 mice were purchased from Charles River Labs (Kingston, N.Y.). The animals weighed between 20-25 grams upon arrival. Animals were acclimatized in a temperature/humidity (72° ±5° F./50%±5%) controlled vivarium, with a common 12 hour light/dark cycle (Lights on 0700 hrs) for 5 days prior to test. All animals were allowed food (Purina Labdiete® Rodent chow # 5001) and water (supplied by Elizabethtown Water Company) ad libitum during the acclimation period and throughout the study. On the day prior to test initiation animals were randomly assigned to groups: All animals chosen for test weighed at least 20 grams and appeared in good condition. Each animal was dosed once daily for 5 days. Animals remained on site for a 3 day recovery period following the chronic dosing period.
A stock concentration of each test compound was prepared fresh on the day of study initiation. Aliquots were diluted to the needed concentrations for daily dosing. Stock solutions were kept in a refrigerator when not in use. Each compound was dissolved in a small amount of distilled water. One equivalent of sodium hydroxide (2 N) may have been added to aid in dissolution of each test agent. Vehicle was then added quantum sufficiat to give the final volume. Final volumes were adjusted to reflect percent free base when appropriate. The vehicle used in this experiment was Hydroxypropyl-β-cyclodextrine (HPCD) Acros, lot 011849601, dissolved in distilled water to form a 10% weight/volume concentration. The pH was adjusted, using sodium hydroxide (2 N), to equal that of the test agents (usually between 8 to 10). All prepared test compounds were either in solution, and clear, or in suspension, and slightly cloudy. Suspensions were mixed immediately prior to use.
All animals were administered either test compound or vehicle Per Os (PO) via 21 gauge gavage needles, in volumes of 10.0 ml/kg. Daily body weights were used to determine individual dosing volumes. All test compounds were weighed on a Denver Instruments analytical balance (model # A-250). Animals were weighed on a top loading Ohaus portable balance model # LS2000.
Animals were assessed for overt behaviors (clinical signs) immediately following administration of test agents, then again at 4 and 24 hours. Animals were assessed for 27 separate clinical signs:
Toxicity data obtained through the assay as described above is provided in Tables 1 to 14 for Compounds Gi to Gxiv inclusive. The animals were observed immediately following administration and again at 4 hours and 24 hours. Observations are reported using the code number from the following chart: […]

[1] = 40 mg/kg/day PO, male CD-1 mice

Row | Structure (SMILES) | Clinical signs (observation code), Day 1, 4 hours [1] | Clinical signs (observation code), Day 1, 24 hours [1] | Clinical signs (observation code), Day 2, 4 hours [1] | Clinical signs (observation code), Day 2, 24 hours [1] | Clinical signs (observation code), Day 3, 4 hours [1] | Clinical signs (observation code), Day 3, 24 hours [1] | Clinical signs (observation code), Day 4, 4 hours [1] | Clinical signs (observation code), Day 4, 24 hours [1] | Clinical signs (observation code), Day 5, 4 hours [1] | Clinical signs (observation code), Day 5, 24 hours [1] | Toxicity profile in comparison (compounds of formula 1 vs other GlyT1 inhibitors of similar potency) | Clinical signs (observation code), Day 4, 4 hours (PO, mice) | Clinical signs (observation code), Day 1, 4 hours (dose 10 (m↓kg) PO, mice) | Clinical signs (observation code), Day 2, 4 hours (dose 10 (m↓kg) PO, mice) | Clinical signs (observation code), Day 3, 4 hours (dose 10 (m↓kg) PO, mice) | Clinical signs (observation code), Day 5, 4 hours (dose 10 (m↓kg) PO, mice) | Clinical signs (observation code), Day 1, 24 hours (dose 25 (m↓kg) PO, mice) | Clinical signs (observation code), Day 2, 24 hours (dose 25 (m↓kg) PO, mice)
1 | COc1cccc(-c2ccc(/C(=C/CN(C)CC(=O)O)c3ccsc3)cc2)c1 [Compound G(v), (Z)-N-(1-(4-(3-Methoxyphenyl)phenyl)-1-(3-thienyl)prop-1-en-3-yl)sarcosine] | 0 | 0 | 0 | 0 | 0 | 0 | 0 | 0 | 0 | 0 | – | – | – | – | – | – | – | –
2 | CN(C/C=C(\c1ccccc1)c1ccc(-c2ccccc2)cc1)CC(=O)O [Compound J, reference compound] | – | – | – | – | – | – | – | – | – | – | higher toxicity profile | 0 | 0 | 0 | 0 | 0 | 0 | 0 and 2
3 | CN(C/C=C(/c1ccc(-c2cccc(C#N)c2)cc1)c1ccsc1)CC(=O)O [Compound G(viii), (Z)-N-(1-(4-(3-Cyanophenyl)phenyl)-1-(3-thienyl)prop-1-en-3-yl)sarcosine] | 0 | 0 | 0 | 0 | 0 | 0 | 0 | 0 | 0 | 0 | – | – | – | – | – | – | – | –
4 | CN(C/C=C(/c1ccc(-c2cccc(OC(F)(F)F)c2)cc1)c1ccsc1)CC(=O)O [Compound G(vii), (Z)-N-(1-(4-(3-(Trifluoromethoxy)phenyl)phenyl)-1-(3-thienyl)prop-1-en-3-yl)sarcosine] | 0 | 0 | 0 | 0 | 0 | 0 | 0 | 0 | 0 | 0 | – | – | – | – | – | – | – | –
5 | CN(C/C=C(/c1ccc(-c2ccsc2)cc1)c1ccsc1)CC(=O)O [Compound G(ii), (Z)-N-(1-(4-(3-Thienyl)phenyl)-1-(3-thienyl)prop-1-en-3-yl)sarcosine] | 0 | 0 | 0 (2×) and 1 | 0 | 0 | 0 | 0 | 0 | 0 and 14 | 0 | – | – | – | – | – | – | – | –
6 | CN(C/C=C(/c1ccc(-c2ccsc2)cc1)c1cccs1)CC(=O)O [Compound G(ix), (Z)-N-(1-(4-(3-Thienyl)phenyl)-1-(2-thienyl)prop-1-en-3-yl)sarcosine] | 0 | 0 | 0 | 0 | 0 | 0 | 0 | 0 | 0 | 0 | – | – | – | – | – | – | – | –
7 | CN(C/C=C(/c1ccc(-c2cccc(C(F)(F)F)c2)cc1)c1ccc(Cl)s1)CC(=O)O [Compound K, reference compound] | 1 and 0 (2×) | 27* | – | – | – | – | – | – | – | – | higher toxicity profile | – | – | – | – | – | – | –
8 | CC(C)c1ccc(/C(=C/CN(C)CC(=O)O)c2ccsc2)cc1 [Compound H, reference compound] | – | – | – | – | – | – | – | – | – | – | higher toxicity profile | – | – | – | – | – | – | –
9 | CN(C/C=C(/c1ccc(-c2ccco2)cc1)c1ccsc1)CC(=O)O [Compound G(iv), (Z)-N-(1-(4-(2-Furyl)phenyl)-1-(3-thienyl)prop-1-en-3-yl)sarcosine] | 0 and 14 | 0 | 0 | 0 | 14 (2×) and 0 | 0 | 0 | 0 | 0 (2×) and 14 | 0 | – | – | – | – | – | – | – | –
10 | Cc1cccc(-c2ccc(/C(=C/CN(C)CC(=O)O)c3ccsc3)cc2)c1 [Compound G(vi), (Z)-N-(1-(4-(3-Methylphenyl)phenyl)-1-(3-thienyl)prop-1-en-3-yl)sarcosine] | 0 | 0 | 0 | 0 | 0 | 0 | 0 | 0 | 0 | 0 | – | – | – | – | – | – | – | –
11 | Cc1cscc1/C(=C\CN(C)CC(=O)O)c1ccc(-c2cccc(C(F)(F)F)c2)cc1 [Compound G(xi), (Z)-N-(1-(4-(3-(Trifluoromethyl)phenyl)phenyl)-1-(3-(4-methylthienyl))prop-1-en-3-yl)sarcosine] | 0 | 0 | 0 | 0 | 0 | 0 | 0 | 0 | 0 | – | – | – | – | – | – | – | – | –
12 | Cc1ccccc1/C(=C\CN(C)CC(=O)O)c1ccc(-c2ccsc2)cc1 [Compound G(xiv), (Z)-N-(1-(4-(3-Thienyl)phenyl)-1-(2-methylphenyl)prop-1-en-3-yl)sarcosine] | 0 | 0 | 0 | 0 | 0 | 0 | 0 | 0 | 0 | 0 | – | – | – | – | – | – | – | –
13 | CN(C/C=C(\c1ccccc1)c1ccc(-c2ccsc2)cc1)CC(=O)O [Compound I, reference compound] | – | 0 | – | 0 | – | 0 | – | 0 | – | – | higher toxicity profile | – | – | – | – | – | – | –
